Data reported in patent US12492200B2, “NLRP3 modulators” (INNATE TUMOR IMMUNITY, INC., priority 2020, dated 2025).

Tests used:
Assay type in all cases: cell-based
[1] = biological target: T1, NLRP3 (Homo sapiens, UniProt Q96P20); experiment: Measurement of IL-1β production (NLRP3 hIL1β EC50), PMA-differentiated THP-1 cells; settings: human IL-1β production; assayed using one or more of the described procedures
T1 construct: host or cells: PMA-differentiated THP-1 cells
Method: THP-1 cells were purchased from the American Type Culture Collection and sub-cultured according to instructions from the supplier. Prior to experiments, cells were cultured in RPMI 1640 containing 10% heat inactivated FBS, penicillin (100 units/ml) and streptomycin (100 μg/ml), and maintained in log phase prior to experimental setup. Prior to the experiment THIP-1 were treated with PMA (Phorbol 12-myristate 13-acetate) (10 μg/ml) for 24 hours. The day of the experiment the media was removed and attaching cells were treated with trypsin for 2 minutes, cells were then collected, washed with PBS (phosphate buffer saline), spin down, resuspended in 2% heat inactivated FBS with RPMI at a concentration of 1×10^6 cells/ml, and 100 μl was plated in a 96 well plate. Compounds were dissolved in dimethyl sulfoxide (DMSO) and added to the culture medium to achieve desired concentration (e.g. 100, 30, 10, 3, 1, 0.3 or 0.1 μM). Cells were incubated with compounds for 4 hours. Cell free supernatant was collected and the production of IL-1β was evaluated by ELISA. A vehicle only control was run concurrently with each experiment. Final DMSO concentration was 1%.
THP-1 cells were purchased from the American Type Culture Collection and sub-cultured according to instructions from the supplier. Prior to experiments, cells were cultured in RPMI 1640 containing 10% heat inactivated FBS, penicillin (100 units/ml), streptomycin (100 μg/ml), HEPES (10 mM) and sodium pyruvate (1 mM) and maintained in log phase prior to experimental setup. Prior to the experiment, THP-1 cells were treated with PMA (Phorbol 12-myristate 13-acetate) (20 μg/ml) overnight. The day of the experiment, the media was removed and attached cells were treated with trypsin for 2 minutes, cells were then collected, washed with PBS (phosphate buffer saline), pelleted by centrifugation and resuspended in 2% heat inactivated FBS with RPMI at a concentration of 50,000 cells/well in a 384 well plate. Cell free supernatant was collected and the production of IL-1β was evaluated by ELISA. Compounds were dissolved in dimethyl sulfoxide (DMSO) and added to the culture medium to achieve desired concentration (e.g. 100, 30, 10, 3, 1, 0.3 or 0.1 μM). Cells were incubated with compounds for 2 hours. A vehicle only control was run concurrently with each experiment. Final DMSO concentration was 1%.
Serial dilutions of compounds in DMSO were added to low volume 384 well plates at 100 nl/well using an ECHO 550 acoustic dispenser (Labcyte) to achieve final starting concentration of 10 μM in assay.
THP-1 cells in RPMI (Gibco, 11875) media with 10% FBS at a density of 1×10^6 cell/ml in a T175 flask were treated with a final concentration of phorbol 12-myristate 13-acetate (PMA) (Sigma,P1585) of 50 ng/ml overnight at 37° C. at 5% CO2 for differentiation. Cells were harvested the next day after rinsing well with dPBS using 0.5% trypsin. A cell solution was prepared of 1×10^6 cells/ml for 50,000 cells in 50 μl/well in RPMI media with 2% FBS. Cells were plated using a multichannel pipette onto the compound dilutions in Greiner, 384 well, black clear bottom tissue culture treated plates (781090). The plates were incubated in 37° C. incubator at 5% CO2 for 2 hours.
After the 2 hour incubation, the cell plates were spun in the centrifuge for 5 minutes at 1200 rpm. Using the Felix (CyBio), 8 μl of the supernatant was transferred to 384 well, low volume, white proxy plates. (Perkin Elmer, 6008230). A human IL1beta hTRF kit was used to analyze the supernatant (CISBIO, 62HIL1BPEG). The kit instructions were followed for preparing the IL1Beta standard curve and then the antibodies from the kit were diluted 1:40 rather than 1:20 as kit instructed. Once combined, the antibodies were added across the plates, 5 μl/well. The plates were sealed and incubated at 4° C. overnight. The plates were then read on the Perkin Elmer EnVision at 665/615 nm using the hTRF laser.

[2] = biological target: T2, human TLR8 (Homo sapiens, UniProt Q9NR97); experiment: In vitro human TLR8 reporter assay (HEK-Blue cells, NF-kB/AP1-inducible SEAP); settings: TLR8 agonist EC50, HEK-Blue TLR8 NF-kB-SEAP reporter cells
T2 construct: host or cells: HEK-Blue cells (human HEK) co-expressing TLR8 and an NF-kB/AP1-inducible SEAP reporter
T2 sequence (Q9NR97 27-1041): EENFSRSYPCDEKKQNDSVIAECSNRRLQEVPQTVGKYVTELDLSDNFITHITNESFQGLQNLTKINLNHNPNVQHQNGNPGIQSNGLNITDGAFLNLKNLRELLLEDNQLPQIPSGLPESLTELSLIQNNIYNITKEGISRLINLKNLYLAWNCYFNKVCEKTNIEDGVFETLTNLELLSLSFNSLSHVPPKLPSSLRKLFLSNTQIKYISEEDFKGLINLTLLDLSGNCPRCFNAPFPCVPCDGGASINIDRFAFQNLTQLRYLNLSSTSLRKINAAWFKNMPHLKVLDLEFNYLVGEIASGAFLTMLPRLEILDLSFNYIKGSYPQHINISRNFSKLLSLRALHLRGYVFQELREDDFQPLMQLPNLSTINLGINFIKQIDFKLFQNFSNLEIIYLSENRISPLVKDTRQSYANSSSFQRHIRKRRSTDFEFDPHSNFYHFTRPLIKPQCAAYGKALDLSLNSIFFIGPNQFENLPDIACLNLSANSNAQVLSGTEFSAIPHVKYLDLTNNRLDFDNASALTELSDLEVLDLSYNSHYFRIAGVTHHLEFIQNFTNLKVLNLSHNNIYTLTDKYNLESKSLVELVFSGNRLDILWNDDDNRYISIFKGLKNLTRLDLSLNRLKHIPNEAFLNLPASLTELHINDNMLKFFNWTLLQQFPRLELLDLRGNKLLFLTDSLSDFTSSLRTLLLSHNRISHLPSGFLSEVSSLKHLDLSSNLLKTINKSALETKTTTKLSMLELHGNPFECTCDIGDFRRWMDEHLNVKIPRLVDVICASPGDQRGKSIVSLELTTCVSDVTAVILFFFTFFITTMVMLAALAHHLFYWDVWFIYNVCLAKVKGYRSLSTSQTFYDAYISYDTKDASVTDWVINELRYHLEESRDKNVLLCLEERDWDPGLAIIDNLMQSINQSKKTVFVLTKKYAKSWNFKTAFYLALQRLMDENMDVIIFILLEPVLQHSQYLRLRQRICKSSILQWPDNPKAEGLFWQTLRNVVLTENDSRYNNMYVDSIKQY
Method: (§1) Logarithmically-growing human HEK-Blue cells co-expressing a TLR7 or TLR8 gene and a NF-kB/AP1-inducible SEAP (secreted embryonic alkaline phosphatase; Invivogen, San Diego, CA) reporter gene are added to individual wells of a 384-well plate (15,000 cells per 20 μL per well) and maintained for 24 h at 37° C., 5% CO2. Test compounds or DMSO are distributed to separate wells the next day using acoustic liquid handling technology (100 nL per well) and cells are subsequently incubated for 18 h at 37° C., 5% CO2. Cellular SEAP production is measured using an Envision plate reader instrument thirty minutes after adding freshly-made Quanti-Blue reagent (prepared by following manufacturer instructions; Invivogen, San Diego, CA) to the HEK-Blue TLR Nf-kB-SEAP cell reactions. All EC50 values (half-maximal effective concentration) are determined using proprietary data analysis software. Normalized EC50 value=absolute value determined by setting 100% Ymax using a reference standard RLU (relative light unit) values from cells treated with 50 μM of the reference standard.

[3] = biological target: T3, human TLR7 (Homo sapiens, UniProt Q9NYK1); experiment: In vitro human TLR7 reporter assay (HEK-Blue cells, NF-kB/AP1-inducible SEAP); settings: TLR7 agonist EC50, HEK-Blue TLR7 NF-kB-SEAP reporter cells
T3 construct: host or cells: HEK-Blue cells (human HEK) co-expressing TLR7 and an NF-kB/AP1-inducible SEAP reporter
T3 sequence (Q9NYK1 27-1049): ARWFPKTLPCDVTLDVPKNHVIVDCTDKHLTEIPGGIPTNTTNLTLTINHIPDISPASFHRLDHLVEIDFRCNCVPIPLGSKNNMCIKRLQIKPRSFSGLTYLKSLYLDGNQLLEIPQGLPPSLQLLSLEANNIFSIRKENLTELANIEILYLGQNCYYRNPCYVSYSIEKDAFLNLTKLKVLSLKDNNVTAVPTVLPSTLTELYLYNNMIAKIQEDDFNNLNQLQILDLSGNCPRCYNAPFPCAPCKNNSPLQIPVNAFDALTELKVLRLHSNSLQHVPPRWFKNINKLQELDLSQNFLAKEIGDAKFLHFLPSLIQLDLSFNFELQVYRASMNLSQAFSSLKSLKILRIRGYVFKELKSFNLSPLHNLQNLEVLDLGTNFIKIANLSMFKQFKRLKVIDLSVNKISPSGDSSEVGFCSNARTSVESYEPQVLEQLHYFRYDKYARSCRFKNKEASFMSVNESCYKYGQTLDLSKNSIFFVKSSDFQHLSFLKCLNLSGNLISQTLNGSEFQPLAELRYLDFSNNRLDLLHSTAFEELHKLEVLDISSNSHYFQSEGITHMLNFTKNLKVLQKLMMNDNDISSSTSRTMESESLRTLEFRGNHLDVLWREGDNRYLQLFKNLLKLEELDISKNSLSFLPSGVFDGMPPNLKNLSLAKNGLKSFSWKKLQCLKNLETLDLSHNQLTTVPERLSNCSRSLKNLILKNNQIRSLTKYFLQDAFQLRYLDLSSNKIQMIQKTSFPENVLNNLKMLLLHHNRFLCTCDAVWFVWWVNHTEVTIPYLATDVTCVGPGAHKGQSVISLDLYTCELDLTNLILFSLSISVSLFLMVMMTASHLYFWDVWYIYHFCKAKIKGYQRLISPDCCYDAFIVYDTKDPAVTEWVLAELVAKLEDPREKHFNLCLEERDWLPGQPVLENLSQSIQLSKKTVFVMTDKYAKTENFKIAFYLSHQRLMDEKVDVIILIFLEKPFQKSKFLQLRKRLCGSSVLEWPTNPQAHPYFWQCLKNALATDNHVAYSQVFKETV
Method: as §1

T1 sequence (Q96P20 whole entry): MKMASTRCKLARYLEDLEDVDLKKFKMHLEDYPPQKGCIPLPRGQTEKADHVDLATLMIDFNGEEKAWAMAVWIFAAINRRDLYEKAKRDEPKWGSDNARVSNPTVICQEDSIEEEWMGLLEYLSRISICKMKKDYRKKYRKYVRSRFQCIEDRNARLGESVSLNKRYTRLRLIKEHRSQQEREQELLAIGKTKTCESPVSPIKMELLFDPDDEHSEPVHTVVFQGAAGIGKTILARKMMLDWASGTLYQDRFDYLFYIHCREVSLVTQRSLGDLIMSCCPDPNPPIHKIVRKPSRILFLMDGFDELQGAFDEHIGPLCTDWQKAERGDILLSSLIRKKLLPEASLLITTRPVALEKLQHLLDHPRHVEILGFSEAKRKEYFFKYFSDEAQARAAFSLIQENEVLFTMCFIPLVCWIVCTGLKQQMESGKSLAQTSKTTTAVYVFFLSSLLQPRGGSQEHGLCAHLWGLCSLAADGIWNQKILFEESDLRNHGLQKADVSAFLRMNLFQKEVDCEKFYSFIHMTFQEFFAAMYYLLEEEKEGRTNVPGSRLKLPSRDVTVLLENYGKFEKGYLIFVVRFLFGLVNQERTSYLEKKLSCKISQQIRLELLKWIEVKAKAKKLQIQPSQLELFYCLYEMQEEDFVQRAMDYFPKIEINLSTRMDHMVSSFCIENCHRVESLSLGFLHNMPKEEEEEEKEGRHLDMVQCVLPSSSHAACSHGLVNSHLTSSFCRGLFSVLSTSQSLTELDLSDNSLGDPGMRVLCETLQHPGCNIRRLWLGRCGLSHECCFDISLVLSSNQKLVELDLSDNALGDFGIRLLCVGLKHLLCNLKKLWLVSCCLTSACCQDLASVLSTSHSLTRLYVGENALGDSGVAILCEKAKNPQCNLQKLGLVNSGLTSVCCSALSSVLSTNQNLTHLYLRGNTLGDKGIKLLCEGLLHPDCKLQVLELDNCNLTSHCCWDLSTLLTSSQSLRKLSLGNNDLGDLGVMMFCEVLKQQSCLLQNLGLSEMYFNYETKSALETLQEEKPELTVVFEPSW

Compound	EC50 [1]	EC50 [2]	EC50 [3]
N#CC1(C(=O)N2CCC[C@H](c3nc4c(N)nc5cc(-c6cc[nH]n6)ccc5c4[nH]3)C2)CCCC1 [Example 39]	2.5 µM	–	35 µM
Nc1nc2cc(-c3cc[nH]n3)ccc2c2[nH]c([C@H]3CCCN(C(=O)Cc4ccccc4)C3)nc12 [Example 40]	3.8 µM	–	58 µM
N#CC1(C(=O)N2CCC[C@@H](c3nc4c(N)nc5cc(-c6cc[nH]n6)ccc5c4[nH]3)C2)CCCC1 [Example 70]	3.9 µM	–	57 µM
CC(C)CC(=O)N1CCC[C@H]1Cc1nc2c(N)nc3cc(-c4cc[nH]n4)ccc3c2[nH]1 [Example 87]	4.3 µM	77 µM	–

Stronger by EC50 [1], values ahead:

EC50 [1]	EC50 [2]	EC50 [3]	Compound
0.33 µM	10 µM	–	CC(C)(C)OC(=O)N1CCC[C@H](c2nc3c(N)nc4cc(-c5cc[nH]n5)ccc4c3[nH]2)C1 [Example 1, tert-Butyl (S)-3-(4-amino-7-(1H-pyrazol-3-yl)-1H-imidazo[4,5-c]quinolin-2-yl)piperidine-1-carboxylate]
0.98 µM	–	0.62 µM	N#CC1(C(=O)N2CCC[C@H](c3nc4c(N)nc5cc(-c6cc[nH]n6)ccc5c4[nH]3)C2)CC1 [Example 3, (S)-1-(3-(4-Amino-7-(1H-pyrazol-3-yl)-1H-imidazo[4,5-c]quinolin-2-yl)piperidine-1-carbonyl)cyclopropane-1-carbonitrile]
0.36 µM	10 µM	–	CC(C)(C)OC(=O)N1CCC[C@@H](c2nc3c(N)nc4cc(-c5cc[nH]n5)ccc4c3[nH]2)C1 [Example 6, tert-Butyl (R)-3-(4-amino-7-(1H-pyrazol-3-yl)-1H-imidazo[4,5-c]quinolin-2-yl)piperidine-1-carboxylate]
1.2 µM	47 µM	–	CC(C)(C)C(=O)N1CCC[C@H](c2nc3c(N)nc4cc(-c5cc[nH]n5)ccc4c3[nH]2)C1 [Example 28]
2 µM	17 µM	–	N#CC1(C(=O)N2CCC[C@H](c3nc4c(N)nc5cc(-c6cc[nH]n6)ccc5c4[nH]3)C2)CCCCC1 [Example 38]
